Measured values reported in paper PMC12616683, “In Vivo Atlas of Neuroprotective Cyclic Dipeptides Derived from Food Gelatin Using Peptidomics and Feature-Based Molecular Networking” (Journal of Agricultural and Food Chemistry, 2025).
Several values for one entry are separate records, joined by “and”; a condition that tells them apart may be missing. Identical values can stand only once. Like-named read-outs stand apart in the source and are kept apart here. Peptide text beside a SMILES is read from it.

Legend:
[1] = Concentrations of CDPs in stomach, small intestine and cecum contents after oral DHG (targeted spatiotemporal metabolomics); type: in vivo, C57 mice
Description: The supernatant was dried using N2.
For gastrointestinal content analysis, freeze-dried powders (1 mg each) of stomach, small intestine, and cecum contents collected over the 0–24 h postadministration period were accurately weighed. The samples were extracted using the same pretreatment procedure as applied for DHG, namely, ultrasonication with 75% methanol for 30 min at room temperature, followed by centrifugation (13,500 rpm, 10 min). The supernatants were collected, dried under nitrogen, and reconstituted in 75% methanol for LC–MS analysis. Quantitation was performed against the 12-point calibration curves established above, ensuring consistency with the DHG quantitation workflow. Samples from different time points were analyzed individually to characterize the temporal distribution of CDPs within each gastrointestinal compartment.

Glu-induced HT-22 cells = test: Neuroprotection in Glu-injured HT-22 cells (CCK-8 cell viability); settings: for cell viability in Glu-injured HT-22 cells: 50 μM (stated for cyclo(Hyp-Ala)), 4 h pretreatment, then 20 mM Glu 24 h, model group 40.759 ± 1.939%; for Cell viability(%) in Glu-induced HT-22 cells: Glu-only model (0 μM) 40.759±1.939
H2O2-induced HT-22 cells = test: Neuroprotection in H2O2-injured HT-22 cells (CCK-8 cell viability); settings: for Cell viability(%) in H2O2-induced HT-22 cells: compound 50 μM, H2O2-only model (0 μM) 48.645±0.347
[2] = FBMN analysis of short peptides in small intestine contents and serum after oral DHG; settings: for time detected in serum (FBMN): time points 0.5-4 h after oral DHG
[3] = Serum pharmacokinetics of CDPs after oral administration of DHG (targeted LC-MS, noncompartmental analysis); settings: for AUC0–24h / C max / T max: serum, mice; for time remained detectable in serum: serum/blood after oral DHG, sampled to 24 h
[4] = mouse, in vivo, po, 1000 mg/kg
[5] = mouse, in vivo, po
[6] = design: method as in number not printed ("the literature reports"); settings: mice; ref number not printed ("the literature reports"); cited from earlier work
HT-22 cells = settings: 20 mM Glu, 24 h
Description: HT-22 cells were cultured in DMEM medium with 10% fetal bovine serum (Gibco), 1% penicillin, and streptomycin (Gibco) at 37 °C. HT-22 cells were seeded at a density of 1 × 10^4 cells per well in 96-well plates and cultured in DMEM medium containing 10% fetal bovine serum and 1% penicillin–streptomycin at 37 °C with 5% CO2.

[7] = design: method as in number not printed ("It was reported"); settings: linear dipeptide; ref number not printed ("It was reported"); cited from earlier work
[8] = design: method as in number not printed ("A study in humans"); settings: humans; ref number not printed ("A study in humans"); cited from earlier work

| AUC0–24h ([3]; oral DHG 1000 mg/kg) | C max ([3]; oral DHG 1000 mg/kg) [ng/mL] | T max ([3]; oral DHG 1000 mg/kg) [min] | Compound | cell viability in Glu-injured HT-22 cells (Glu-induced HT-22 cells) [% cell viability] | Cell viability(%) in Glu-induced HT-22 cells (Glu-induced HT-22 cells; compound 25 μM) [%] | Cell viability(%) in H2O2-induced HT-22 cells (H2O2-induced HT-22 cells) [%] | Cell viability(%) in Glu-induced HT-22 cells (Glu-induced HT-22 cells; compound 50 μM) [%] | also measured |
| --- | --- | --- | --- | --- | --- | --- | --- | --- |
| 263.2271 ng·h/mL | 51.2931 | 60 | O=C1N[C@@H](Cc2ccccc2)C(=O)N2C[C@@H](O)C[C@@H]12 [cyclo(Phe-Hyp)] | 60.206 ± 4.409 | 56.084±2.124 | 63.241±3.395 | – | cecum concentration at 8 h compared with peak levels in stomach and small intestine [1]: surpassed the peak levels observed in the stomach and small intestine; time detected in serum (FBMN) [2]: 0.5 to 4 h |
| – | – | – | O=C1N[C@@H](Cc2ccccc2)C(=O)N2CCC[C@@H]12 [cyclo(Pro-Phe)] | – | – | – | – | AUC0–24h [4]: 19.8164 ng·h/mL; C max [4]: 11.0670 ng/mL; T max [4]: 30 min; Peptide signal (feature intensity) in the small intestine, 30 min [5]: 2.06E+05; Peptide signal (feature intensity) in the small intestine, 60 min [5]: 0.00E+00; Peptide signal (feature intensity) in the small intestine, 120 min [5]: 2.49E+05; Peptide signal (feature intensity) in the small intestine, 240 min [5]: 2.18E+05 |
| 15547.0170 ng·h/mL | 4259.0300 | 60 | O=C1NCC(=O)N2CCC[C@@H]12 [cyclo(Gly-Pro)] | – | 54.865±0.079 | 53.985±7.459 | 58.506±3.833 | time remained detectable in serum [3]: 12 h |
| – | – | – | O=C(O)[C@@H]1C[C@@H](O)CN1C(=O)[C@@H]1CCCN1 [Pro-Hyp] (HELM PEPTIDE1{P.[Hyp]}$$$$V2.0) | – | – | – | – | time to drop to basal levels [6]: ≤ 3 h |
| – | – | – | N[C@@H](CCC(=O)O)C(=O)O [Glu, Glutamate] | – | – | – | – | HT22 cell viability after Glu exposure (HT-22 cells): 40–60% |
| 301.1580 ng·h/mL | 110.4803 | 30 | CC(C)CC1NC(=O)C2CC(O)CN2C1=O (stereo not drawn) [cyclo(Hyp-Leu)] | – | 53.193±5.729 | 60.867±9.188 | 53.590±3.417 | time detected in serum (FBMN) [2]: 0.5 to 4 h |
| 7371.695 ng·h/mL and 7371.6951 ng·h/mL | 683.7471 | 120 | O=C1NCC(=O)N2CC(O)CC12 (stereo not drawn) [cyclo(Hyp-Gly), cyclo(Gly-Hyp)] | 63.703 ± 1.518 | 61.970±4.223 | 62.961±1.166 | 53.703±1.518 | concentration in the cecum ([1]; cecum contents at 8 h): 358.966 ng/g; cecum concentration at 8 h compared with peak levels in stomach and small intestine [1]: surpassed the peak levels observed in the stomach and small intestine; concentration in the small intestine ([1]; small intestine contents at 1 h): 354.578 ng/g; concentration in the stomach ([1]; stomach contents at 0.5 h): 265.229 ng/g; C max ([3]; oral DHG): 684 ng/mL |
| 2561.8131 ng·h/mL | 400.1572 | 60 | CC1NC(=O)C2CC(O)CN2C1=O (stereo not drawn) [cyclo(Hyp-Ala)] | 70.614 ± 4.85 | 54.245±1.226 | – | – | cell viability in H2O2-injured HT-22 cells (H2O2-induced HT-22 cells; 50 μM, 4 h pretreatment, then 400 μM H2O2 24 h): 68.515 ± 2.290% |
| 487.9963 ng·h/mL | 197.3334 | 30 | O=C1[C@@H]2CCCN2C(=O)[C@@H]2CCCN12 [cyclo(Pro-Pro)] | – | 57.390±2.465 | 60.084±2.807 | 58.451±5.789 | time of decline / return to baseline in serum ([3]; serum after oral DHG): up to 8 h |
| 13.9981 ng·h/mL | 1.9830 | 30 | O=C1N[C@@H](Cc2cnc[nH]2)C(=O)N2CCC[C@@H]12 [cyclo(Pro-His), cyclo(His-Pro)] | – | 52.701±4.050 | 55.307±7689 | 55.361±5.121 | – |
| – | – | – | NCC(=O)N1CCC[C@H]1C(=O)O [Gly-Pro] (H-Gly-Pro-OH) | – | – | – | – | time to decrease to a negligible level after oral administration [7]: ≤ 1 h; T max, C max, and AUC0–4h compared with cyclo(Gly-Pro) [8]: lower |
| 2126.6252 ng·h/mL | 408.1371 | 60 | O=C1[C@@H]2C[C@@H](O)CN2C(=O)[C@@H]2CCCN12 [cyclo(Pro-Hyp)] | 60.071 ± 3.101 | 53.105±7.712 | 67.606±2.468 | – | cecum concentration at 8 h compared with peak levels in stomach and small intestine [1]: surpassed the peak levels observed in the stomach and small intestine; time remained detectable in serum [3]: 24 h |
| 71.9933 ng·h/mL | 24.5331 | 30 | CC[C@H](C)[C@@H]1NC(=O)[C@@H]2CCCN2C1=O [cyclo(Pro-Ile)] | 63.104 ± 2.519 | 58.030±5.577 | 61.087±0.749 | – | – |
| 201.4294 ng·h/mL | 78.4401 | 30 | CC(C)[C@@H]1NC(=O)[C@@H]2CCCN2C1=O [cyclo(Pro-Val)] | – | 57.390±2.314 | 60.019±9.124 | 58.518±3.306 | time detected in serum (FBMN) [2]: 0.5 to 4 h |
| 176.6962 ng·h/mL | 81.2502 | 30 | CC(C)CC1NC(=O)C2CCCN2C1=O (stereo not drawn) [cyclo(Pro-Leu)] | – | 52.208±0.555 | 57.413±6.700 | 55.781±2.676 | time detected in serum (FBMN) [2]: 0.5 to 4 h |
| – | – | – | NC(Cc1ccccc1)C(=O)NC(Cc1ccc(O)cc1)C(=O)O (stereo not drawn) [Phe-Tyr] (H-Phe-Tyr-OH; configuration not given here) | – | – | – | – | Peptide signal (feature intensity) in the small intestine, 30 min ([2]; small intestine contents, 30 min after oral DHG, C57 mice, FBMN feature intensity, peptides smaller than 690 Da): 4.42E+05; Peptide signal (feature intensity) in the small intestine, 60 min ([2]; small intestine contents, 60 min after oral DHG, C57 mice, FBMN feature intensity, peptides smaller than 690 Da): 1.79E+06; Peptide signal (feature intensity) in the small intestine, 120 min ([2]; small intestine contents, 120 min after oral DHG, C57 mice, FBMN feature intensity, peptides smaller than 690 Da): 8.30E+05; Peptide signal (feature intensity) in the small intestine, 240 min ([2]; small intestine contents, 240 min after oral DHG, C57 mice, FBMN feature intensity, peptides smaller than 690 Da): 0.00E+00 |
